How the values were obtained:
PC12 cells [1] = test: Autophagy flow assay (CYTO-ID) in PC12 cells; assay type: cell-based; details: 5 mM 3-MA + 10 μM GENI + 10 μM CQ
Protocol: The experiment was carried out according to the instructions of the CYTO-ID autophagy detection kit (Enzo Biochem, New York, NY, USA). In brief, we seeded 7.5 × 10^4 PC12 cells in each well of a 24-well plate using the cell slide method. The cells were incubated for 24 h at 37 °C in a 5% CO2 incubator. The experiment was divided into control (0.5% DMSO), positive control rapamycin (Rap 500 nM + chloroquine (CQ)), GENI treated-group (10 μM GENI + 10 μM CQ), 3-MA inhibitor group (5 mM 3-MA + 10 μM CQ) and GENI + 3MA group (5 mM 3-MA + 10 μM GENI + 10 μM CQ). The optimum concentration of 3MA inhibitor was referenced in the other report. At first, 0.5 mL of serum-free DMEM (plus 1% dual anti-penicillin–streptomycin) containing 3-MA (5 mM) was used to replace the medium in two groups as well as 0.5 mL of serum-free DMEM was added in the other groups, respectively. After treating for 6 h, 0.5 mL of DMEM containing DMSO (0.5%), Rap (500 nM) + CQ (10 μM), GENI (10 μM) + CQ (10 μM), CQ (10 μM), and GENI (10 μM) + CQ (10 μM) was added into the corresponding group, respectively. After 18 h, we removed the medium and washed cells twice with 1× assay buffer containing 5% FBS. We then added CYTO-ID Green detection reagent and Hocchst 33342 nuclear stain to the cells, which were incubated at 37 °C for 45 min. After three washes with 1× assay buffer, we fixed cells with 4% paraformaldehyde for 20 min. After three washes with 1× assay buffer, we observed the cells with an upright two-photon confocal microscope (Olympus FV1000BX-51, Tokyo, Japan).

PC12 cells [2] = test: Western blot of LC3 II/LC3 I in the autophagy flow assay; assay type: cell-based; details: 3-MA 5 mM
Protocol: (§1) Western blot analysis for p-AMPK α, AMPK α, p-mTOR, mTOR, p-ULK1, ULK1, and LC3-I/II was conducted according to the information described in the materials and methods section of Supplementary Information.
1.3. Western blot analysis.
For PC12 cell samples, we seeded 2 × 10^6 PC12 cells in each 60 mm dish containing 5 mL of DMEM and incubated the dish for 24 h. For the dose-dependent experiment of GENI, GENI (1, 3 and 10 μM) was added to the dishes and incubated for a period of time (2 hours for p-AMPK α, AMPK α, 48 hours for p-mTOR, mTOR and p-ULK1, ULK1; 8 hours for LC3-I/II). Cells were then collected, lysed using RAPI lysis buffer and centrifuged. The supernatants of each group were used as protein samples. For the protein samples of autophagy flow assay, we seeded 2 × 10^6 PC12 cells in each 60 mm dish containing 5 mL of DMEM and incubated the dish for 24 h.
The GENI, rapamycin and inhibitors, such as chloroquine and 3-MA were added according to the method of autophagy flow assay. After treatment of 18 h, cells were then collected, lysed using RAPI lysis buffer and centrifuged. […] The protein concentration was measured with a BCA assay kit (Beijing Cowin Biotech Company, Beijing, China). […] Bands were quantitatively measured using ImageJ software (National Institutes of Health, Bethesda, MD, USA).

[3] = Serum biochemical index of D-galactose mice; details: D+DON 3 mg/kg, mean ± SEM, n 7
Text: (§3) Each group comprised 10 mice. […] Dosing lasted for 10 weeks. […] The mice were sacrificed after 10 weeks of administration.
(§4) At the end of the animal experiment, the epididymis fat, heart, liver, spleen, and kidney of the mice were removed for weighing analysis.

[4] = Organ weights in the D-gal induced AD mice experiment; details: D-gal + DON 3 mg/kg, gavage 10 weeks, mean ± SEM, n 7
Text: as §3, §4

natural aging AD mice [5] = test: Behaviour tests in naturally aged mice with AD; assay type: in vivo
Protocol: (§2) Each group had 10 mice. GENI was dissolved in ultrapure water and administered by gavage, whereas Dor was dissolved in normal saline. The pH was adjusted to pH 5 with 0.1 M hydrochloric acid to the clarified solution and administered by intraperitoneal injection. The dosing experiment also lasted 10 weeks. Animal behavioral experiments and sampling at the end of the animal experiment were performed as described above.
The Y-maze is mainly used to study the spatial working memory ability of rodents. The Y-maze consisted of three equal-length arms (50 cm × 18 cm × 35 cm), and the angle between each two arms was 120 degrees. The mice were placed at the end of any arm of the Y-maze and allowed to explore freely for 8 min. The behavioral changes including the total number of entries and alternation (successively entering all three arms of the Y-maze once in turn) were recorded. Percentage altercation = alternation/(entries-2) × 100%. The Y-maze could effectively reflect the ability of animals to recognize and remember novel environments.
NOR was used to detect memory in rodents. We prepared a 40 × 40 × 40 cm square box, camera equipment, and behavioral analysis software. We chose three objects A, B, and C, where objects A and B were exactly the same, and object C was very different from objects A and B. After the start of the experiment, the mice were allowed to acclimate freely in the experimental apparatus for 10 min. Objects A and B were placed into the box, and the mice were allowed to explore for 5 min. We then recorded the exploration time and times. After 1 h, A and C or B and C were placed into the box. After letting the mice explore for 5 min, we recorded the exploration time of the original object and the new object. Discrimination index = exploration time of new objects/total exploration time × 100%.
The MWM installation consisted of a circular pool (120 cm in diameter and 50 cm in height), camera equipment, and a computer analysis system. In the first stage, the platform position was fixed, and mice were placed into the pool from any three of the four origins on the pool facing away from the pool wall. The time when it took for the mouse to find the platform within 120 s, called escape latency, was recorded. The training period lasted 4 days. The escape latency of the mice was recorded daily, and the average value was used as an index to evaluate the ability of learning and memory. On the 5th day, the platform was evacuated by the experimenter. The mice were placed against the platform into the water from any water entry point, and they were allowed to swim freely for 60 s. We then recorded the number of times that they crossed the platform.

natural aging AD mice [6] = test: Immunohistochemistry and Western blot of brain in naturally aged AD mice; assay type: in vivo; details: Dor 2 mg/kg + GENI 25 mg/kg
Protocol: as §2
Firstly, the three mice of each group were subjected to heart perfusion at the end of the animal experiment, and the whole brain was removed and placed in 15 mL of 4% paraformaldehyde and stored at 4 °C for 24 h. Secondly, we changed 4% paraformaldehyde into 15% sucrose solution and stored the solution at 4 °C for 24 h. We then changed the solution to 30% sucrose solution to dehydrate for 2 days. Thirdly, the mouse brain tissue was embedded in a cryo-embedding medium, and about 80 slices with a thickness of 20 μm were cut in the hippocampus using a cryostat (Thermal Fisher, Shanghai, China). The sections of mice in each group were immunohistochemically stained with primary antibodies, such as neuronal nuclear anti gen (NeuN), ionized calcium-binding adapter molecule 1 (Iba-1), inducible nitric oxide synthase (iNOS, pro-inflammatory factors), synaptophysin (Syp), and glial fibrillary acidic protein (GFAP), and secondary antibody. The product number and usage ratios of primary and secondary antibodies are detailed in Supplementary Table S4. Finally, the sections were observed under an upright two-photon confocal microscope (Olympus BX61, Tokyo, Japan) and recorded by a camera. The pictures were digitized with ImageJ software V1.8.0.112 (National Institutes of Health, Bethesda, MD, USA).
as §1
1.3. Western blot analysis. […]
The supernatants of each group were used as protein samples. For animal samples, an appropriate amount of tissue, such as cerebral cortex and hippocampus (50–100 mg), of each group was weighed, and we added lysis buffer with 1:9 ratios. After grinding and centrifuging, the supernatants of each group were used as protein samples. The protein concentration was measured with a BCA assay kit (Beijing Cowin Biotech Company, Beijing, China). Sodium dodecyl sulphate polyacrylamide gel electrophoresis (SDS-PAGE) was used to separate proteins (15 μg), which were transferred to PVDF membranes. The membrane was incubated with primary and secondary antibodies (Supplementary Table S5 for details). Antigens were visualised using a high-sensitivity chemiluminescence detection kit (Beijing Cowin Biotech Company, Beijing, China). Bands were quantitatively measured using ImageJ software (National Institutes of Health, Bethesda, MD, USA).

AMPK = test: Inhibitor experiment with Dor in PC12 cells (Western blot); assay type: cell-based; details: Dor pre-treatment then 10 μM GENI 2 h
Protocol: Firstly, 2 × 10^6 cells were added to a 60 mm Petri dish containing 5 mL of DMEM and incubated for 24 h. Secondly, the C group, GENI group, Dor group, and GENI+ Dor group were established. The dishes containing the Dor group were pre-treated with 5 μM Dor for 2 h, and the remaining groups were balanced with DMSO. The group containing 10 μM GENI was added, and the remaining groups were balanced with DMSO. After incubation for 2 h, protein extraction was performed for the Western blot experiment.

APP/PS1 mice = test system: APP/PS1 mice; set-up: method as in PMID 31837991; details: APP/PS1 mice ref 27; cited from earlier work

SMILES: Cn1cnc(N)c2ncnc1-2 [3-MA, reference compound]
- autophagy induced by GENI, effect of the inhibitor (PC12 cells [1]): inhibited
- conversion of LC3 I to LC3 II induced by GENI, effect of the inhibitor (PC12 cells [2]): diminished

SMILES: COc1cc2c(cc1OC)C(=O)C(CC1CCN(Cc3ccccc3)CC1)C2 (stereo not shown) [DON, donepezil]
- ALB [3]: 24.0 ± 1.6 g/L
- Fat weight [4]: 0.728 ± 0.302 g
- Heart weight [4]: 0.196 ± 0.048 g
- Kidney weight [4]: 0.547 ± 0.034 g
- Spleen weight [4]: 0.113 ± 0.015 g

SMILES: c1cc(-c2cnn3cc(-c4ccc(OCCN5CCCCC5)cc4)cnc23)ccn1 [Dor, dorsomorphin]
- GENI effects on escape latency and number of crossing platforms, effect of the AMPK inhibitor (natural aging AD mice [5]; Dor 2 mg/kg + GENI 25 mg/kg): partially reduced
- improvement in cognitive function by GENI in Y maze and NOR tests, effect of the AMPK inhibitor (natural aging AD mice [5]; Dor 2 mg/kg i.p. once every 2 days + GENI 25 mg/kg): significantly decreased
- activation of the AMPK/mTOR/ULK1 signaling pathway by GENI in hippocampus and cortex, effect of the AMPK inhibitor (natural aging AD mice [6]): suppressed
- anti-inflammation effects of GENI on activated microglia and astrocytes and iNOS expression, effect of the AMPK inhibitor (natural aging AD mice [6]): significantly suppressed
- effects of GENI on APP, Tau, Aβ and p-Tau, effect of the AMPK inhibitor (natural aging AD mice [6]): inhibited
- increase in neurons and synaptophysin expression in hippocampus and cortex by GENI, effect of the AMPK inhibitor (natural aging AD mice [6]): significantly diminished
- phosphorylation of AMPK, ULK1, and LC3 II after GENI treatment, effect of the AMPK inhibitor (AMPK): significantly decreased

SMILES: O=C(O)C1=CO[C@@H](O[C@@H]2O[C@H](CO)[C@@H](O)[C@H](O)[C@H]2O)[C@@H]2C(CO)=CC[C@H]12 [GPA, geniposidic acid]
- Aβ deposition in brains (APP/PS1 mice): reduce
- spatial learning and memory abilities (APP/PS1 mice): significantly improve

Source: article PMC11763059, “GENI as an AMPK Activator Binds α and γ Subunits and Improves the Memory Dysfunction of Alzheimer’s Disease Mouse Models via Autophagy and Neuroprotection” (Antioxidants, 2025)
